Read-outs that look alike come from different tables or passages of the source.
Target: T1, Human BCL-XL protein (N-terminal HiBiT tagged BCL-XL in HT1080 cells) (Homo sapiens, UniProt Q07817)
T1 construct: expressed in transfected cells; host or cells: HT-1080 (ATCC CCL-121), stably transduced with lentivirus pLV-UBC-N-HiBiT-BCL-XL-PGK-puro and selected with puromycin
Assay: HiBiT based degradation assay
Assay type: cell-based
Conditions: HT1080 cells expressing HiBiT-BCL-XL; for Ymin (6 h) / Ymin (24 h): BCL-XL degradation normalized with DMSO control; for DC50: BCL-XL degradation
Outline: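 This HiBiT degradation assay measured loss of BCL-XL in HT1080 cells that stably express an N-terminal HiBiT-BCL-XL fusion delivered by lentivirus. Cells were added to compound-spotted 384-well plates, and luminescence was read on a PHERAstar FSX reader. Signal was expressed relative to DMSO controls, curves were fitted by four-parameter logistic regression, and for hook-shaped curves the Ymin point served as the bottom plateau when calculating EC50.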

T1 sequence (Q07817 whole entry): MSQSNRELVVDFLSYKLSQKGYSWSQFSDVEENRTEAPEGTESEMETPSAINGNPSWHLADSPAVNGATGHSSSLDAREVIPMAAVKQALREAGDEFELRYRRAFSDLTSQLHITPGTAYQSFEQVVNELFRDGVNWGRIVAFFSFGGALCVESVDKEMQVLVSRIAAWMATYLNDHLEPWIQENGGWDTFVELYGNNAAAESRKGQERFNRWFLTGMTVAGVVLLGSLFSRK

Row | SMILES | Ymin (6 h) | Ymin (24 h) | DC50 (6 h, read-out: EC50 (6 h)) | DC50 (24 h, read-out: EC50 (24 h))
1 | Cc1c(O[C@@H](C)CCC2CCN(CC(=O)Nc3ccc4c(C5CCC(=O)NC5=O)nn(C)c4c3)CC2)cccc1-c1ccc(N2CCc3cccc(C(=O)Nc4nc5ccccc5s4)c3C2)nc1C(=O)O (stereo partly drawn) [Compound 162a, 6-[8-(1,3-benzothiazol-2-ylcarbamoyl)-3,4-dihydro-H-isoquinolin-2-yl]-3-[3-[(1 S)-3-[1-[2-[[3-(2,6-dioxo-3-piperidyl)-1-methyl-indazol-6-yl]amino]-2-oxo-ethyl]-4-piperidyl]-1-methyl-propoxy]-2-methyl-phenyl]pyridine-2-carboxylic acid] | B (50% ≤ Ymin < 70%) | A (Ymin < 50%) | < 0.1 µM | < 0.1 µM
2 | Cc1c(O[C@H](C)CCC2CCN(CC(=O)Nc3ccc4c(C5CCC(=O)NC5=O)nn(C)c4c3)CC2)cccc1-c1ccc(N2CCc3cccc(C(=O)Nc4nc5ccccc5s4)c3C2)nc1C(=O)O (stereo partly drawn) [Compound 162b, 6-[8-(1,3-benzothiazol-2-ylcarbamoyl)-3,4-dihydro-1H-isoquinolin-2-yl]-3-[3-[(1R)-3-[1-[2-[[3-(2,6-dioxo-3-piperidyl)-1-methyl-indazol-6-yl]amino]-2-oxo-ethyl]-4-piperidyl]-1-methyl-propoxy]-2-methyl-phenyl]pyridine-2-carboxylic acid] | C (Ymin ≥ 70%) | B (50% ≤ Ymin < 70%) | 0.1 to 1 µM | < 0.1 µM
3 | Cc1c(Oc2ccc(CCCCN3CCN(c4ccc5c(C6CCC(=O)NC6=O)nn(C)c5c4)CC3)cc2)cccc1-c1ccc(N2CCc3cccc(C(=O)Nc4nc5ccccc5s4)c3C2)nc1C(=O)O (stereo not drawn) [Compound 163, 6-(8-(benzo[d]thiazol-2-ylcarbamoyl)-3,4-dihydroisoquinolin-2(1H)-yl)-3-(3-(4-(4-(4-(3-(2,6-dioxopiperidin-3-yl)-1-methyl-1H-indazol-6-yl)piperazin-1-yl)butyl)phenoxy)-2-methylphenyl)picolinic acid] | – | A (Ymin < 50%) | – | < 0.1 µM
4 | Cc1c(OCCCC2CCN([C@@H](C)C(=O)Nc3ccc4c(C5CCC(=O)NC5=O)nn(C)c4c3)CC2)cccc1-c1ccc(N2CCc3cccc(C(=O)Nc4nc5ccccc5s4)c3C2)nc1C(=O)O (stereo partly drawn) [Compound 164a, 6-(8-(benzo[d]thiazol-2-ylcarbamoyl)-3,4-dihydroisoquinolin-2(1H)-yl)-3-(3-(3-(1-((2S)-1-((3-(2,6-dioxopiperidin-3-yl)-1-methyl-1H-indazol-6-yl)amino)-1-oxopropan-2-yl)piperidin-4-yl)propoxy)-2-methylphenyl)picolinic acid] | – | A (Ymin < 50%) | – | < 0.1 µM
5 | Cc1c(OCCCC2CCN([C@H](C)C(=O)Nc3ccc4c(C5CCC(=O)NC5=O)nn(C)c4c3)CC2)cccc1-c1ccc(N2CCc3cccc(C(=O)Nc4nc5ccccc5s4)c3C2)nc1C(=O)O (stereo partly drawn) [Compound 164b, 6-(8-(benzo[d]thiazol-2-ylcarbamoyl)-3,4-dihydroisoquinolin-2(1H)-yl)-3-(3-(3-(1-((2R)-1-((3-(2,6-dioxopiperidin-3-yl)-1-methyl-1H-indazol-6-yl)amino)-1-oxopropan-2-yl)piperidin-4-yl)propoxy)-2-methylphenyl)picolinic acid] | – | A (Ymin < 50%) | – | < 0.1 µM
6 | Cc1c(OCCCN2CCN(CCCOc3ccc4c(C5CCC(=O)NC5=O)nn(C)c4c3)C(C(F)(F)F)C2)cccc1-c1ccc(N2CCc3cccc(C(=O)Nc4nc5ccccc5s4)c3C2)nc1C(=O)O (stereo not drawn) [Compound 165, 6-(8-(benzo[d]thiazol-2-ylcarbamoyl)-3,4-dihydroisoquinolin-2(1H)-yl)-3-(3-(3-(4-(3-((3-(2,6-dioxopiperidin-3-yl)-1-methyl-1H-indazol-6-yl)oxy)propyl)-3-(trifluoromethyl)piperazin-1-yl)propoxy)-2-methylphenyl)picolinic acid] | – | B (50% ≤ Ymin < 70%) | – | 0.1 to 1 µM
7 | Cc1c(OCCCC2CCN(C(C)(C)C(=O)Nc3ccc4c(C5CCC(=O)NC5=O)nn(C)c4c3)CC2)cccc1-c1ccc(N2CCc3cccc(C(=O)Nc4nc5ccccc5s4)c3C2)nc1C(=O)O (stereo not drawn) [Compound 166, 6-[8-(1,3-benzothiazol-2-ylcarbamoyl)-3,4-dihydro-1H-isoquinolin-2-yl]-3-[3-[3-[1-[2-[[3-(2,6-dioxo-3-piperidyl)-1-methyl-indazol-6-yl]amino]-1,1-dimethyl-2-oxo-ethyl]-4-piperidyl]propoxy]-2-methyl-phenyl]pyridine-2-carboxylic acid] | – | B (50% ≤ Ymin < 70%) | – | 0.1 to 1 µM
8 | Cc1c(OCC[C@@H](C)C2CCN(CC(=O)Nc3ccc4c(C5CCC(=O)NC5=O)nn(C)c4c3)CC2)cccc1-c1ccc(N2CCc3cccc(C(=O)Nc4nc5ccccc5s4)c3C2)nc1C(=O)O (stereo partly drawn) [Compound 167a, 6-[8-(1,3-benzothiazol-2-ylcarbamoyl)-3,4-dihydro-1H-isoquinolin-2-yl]-3-[3-[(3R)-3-[1-[2-[[3-(2,6-dioxo-3-piperidyl)-1-methyl-indazol-6-yl]amino]-2-oxo-ethyl]-4-piperidyl]butoxy]-2-methyl-phenyl]pyridine-2-carboxylic acid] | – | A (Ymin < 50%) | – | < 0.1 µM
9 | Cc1c(OCC[C@H](C)C2CCN(CC(=O)Nc3ccc4c(C5CCC(=O)NC5=O)nn(C)c4c3)CC2)cccc1-c1ccc(N2CCc3cccc(C(=O)Nc4nc5ccccc5s4)c3C2)nc1C(=O)O (stereo partly drawn) [Compound 167b, 6-[8-(1,3-benzothiazol-2-ylcarbamoyl)-3,4-dihydro-1H-isoquinolin-2-yl]-3-[3-[(3S)-3-[1-[2-[[3-(2,6-dioxo-3-piperidyl)-1-methyl-indazol-6-yl]amino]-2-oxo-ethyl]-4-piperidyl]butoxy]-2-methyl-phenyl]pyridine-2-carboxylic acid] | – | B (50% ≤ Ymin < 70%) | – | < 0.1 µM
10 | Cc1c(O[C@H]2CC[C@H](CC(F)(F)CN3CCN(c4cccc5c(C6CCC(=O)NC6=O)nn(C)c45)CC3)CC2)cccc1-c1ccc(N2CCc3cccc(C(=O)Nc4nc5ccccc5s4)c3C2)nc1C(=O)O (stereo partly drawn) [Compound 168a, 6-(8-(benzo[d]thiazol-2-ylcarbamoyl)-3,4-dihydroisoquinolin-2(1H)-yl)-3-(3-(((1r,4r)-4-(3-(4-(3-(2,6-dioxopiperidin-3-yl)-1-methyl-1H-indazol-7-yl)piperazin-1-yl)-2,2-difluoropropyl)cyclohexyl)oxy)-2-methylphenyl)picolinic acid] | – | B (50% ≤ Ymin < 70%) | – | < 0.1 µM
11 | Cc1c(O[C@@H](C)CCC2CCN(CC(=O)Nc3cccc4c(C5CCC(=O)NC5=O)nn(C)c34)CC2)cccc1-c1ccc(N2CCc3cccc(C(=O)Nc4nc5ccccc5s4)c3C2)nc1C(=O)O (stereo partly drawn) [Compound 169a, 6-[8-(1,3-benzothiazol-2-ylcarbamoyl)-3,4-dihydro-1H-isoquinolin-2-yl]-3-[3-[(1S)-3-[1-[2-[[3-(2,6-dioxo-3-piperidyl)-1-methyl-indazol-7-yl]amino]-2-oxo-ethyl]-4-piperidyl]-1-methyl-propoxy]-2-methyl-phenyl]pyridine-2-carboxylic acid] | B (50% ≤ Ymin < 70%) | B (50% ≤ Ymin < 70%) | 0.1 to 1 µM | < 0.1 µM
12 | Cc1c(O[C@H](C)CCC2CCN(CC(=O)Nc3cccc4c(C5CCC(=O)NC5=O)nn(C)c34)CC2)cccc1-c1ccc(N2CCc3cccc(C(=O)Nc4nc5ccccc5s4)c3C2)nc1C(=O)O (stereo partly drawn) [Compound 169b, 6-[8-(1,3-benzothiazol-2-ylcarbamoyl)-3,4-dihydro-1H-isoquinolin-2-yl]-3-[3-[(1R)-3-[1-[2-[[3-(2,6-dioxo-3-piperidyl)-1-methyl-indazol-7-yl]amino]-2-oxo-ethyl]-4-piperidyl]-1-methyl-propoxy]-2-methyl-phenyl] pyridine-2-carboxylic acid] | C (Ymin ≥ 70%) | B (50% ≤ Ymin < 70%) | < 0.1 µM | < 0.1 µM
13 | Cc1c(OCC(F)(F)CC2CCN(CC(=O)Nc3cccc4c(C5CCC(=O)NC5=O)nn(C)c34)CC2)cccc1-c1ccc(N2CCc3cccc(C(=O)Nc4nc5ccccc5s4)c3C2)nc1C(=O)O (stereo not drawn) [Compound 170, 6-[8-(1,3-benzothiazol-2-ylcarbamoyl)-3,4-dihydro-1H-isoquinolin-2-yl]-3-[3-[3-[1-[2-[[3-(2,6-dioxo-3-piperidyl)-1-methyl-indazol-7-yl]amino]-2-oxo-ethyl]-4-piperidyl]-2,2-difluoro-propoxy]-2-methyl-phenyl]pyridine-2-carboxylic acid] | – | B (50% ≤ Ymin < 70%) | – | 0.1 to 1 µM
14 | Cc1c(O[C@H]2CC[C@H](CC(F)(F)C(=O)N3CCN(c4cccc5c(C6CCC(=O)NC6=O)nn(C)c45)CC3)CC2)cccc1-c1ccc(N2CCc3cccc(C(=O)Nc4nc5ccccc5s4)c3C2)nc1C(=O)O (stereo partly drawn) [Compound 171a, 6-(8-(benzo[d]thiazol-2-ylcarbamoyl)-3,4-dihydroisoquinolin-2(1H)-yl)-3-(3-(((1r,4r)-4-(3-(4-(3-(2,6-dioxopiperidin-3-yl)-1-methyl-1H-indazol-7-yl)piperazin-1-yl)-2,2-difluoro-3-oxopropyl)cyclohexyl)oxy)-2-methylphenyl)picolinic acid] | – | B (50% ≤ Ymin < 70%) | – | 0.1 to 1 µM

— patent publication US20240238423A9, “TETRAHYDROISOQUINOLINE HETEROBIFUNCTIONAL BCL-XL DEGRADERS” (Treeline Biosciences, Inc., priority 2022, published 2024)
